Measured values as given in patent US4477443A, “Tylosin derivatives, their preparation and pharmaceutical compositions containing them” (Zaidan Hojin Biselbutsu Kagaku Kenkyu Kai (Microbial …, priority 1981, dated 1984).
Values after ≈ are worked out from the molar mass of the structure shown. Like-named read-outs stand apart in the source and are kept apart here.

Tests used:
Format in all cases: cell-based
[1] = tested on: Staph. aureus 193; experiment: antimicrobial activity (MIC), Table I; conditions: Staphylococcus aureus; Staph. aureus 193; read-out: MIC
[2] = tested on: Staph. aureus 209 P; experiment: antimicrobial activity (MIC), Table I; conditions: Staphylococcus aureus; Staph. aureus 209 P; read-out: MIC
[3] = tested on: Staph. aureus MS 9861; experiment: antimicrobial activity (MIC), Table I; conditions: Staphylococcus aureus, MS9861; Staph. aureus MS 9861; read-out: MIC
[4] = tested on: Sarcina lutea PCI 1001; experiment: antimicrobial activity (MIC), Table I; conditions: Micrococcus luteus, PCI1001; Sarcina lutea PCI 1001; read-out: MIC
[5] = tested on: B. subtilis NRRL B-558; experiment: antimicrobial activity (MIC), Table I; conditions: Bacillus subtilis, NRRLB558; B. subtilis NRRL B-558; read-out: MIC
[6] = tested on: Coryn. bovis 1810; experiment: antimicrobial activity (MIC), Table I; conditions: Corynebacterium bovis; Coryn. bovis 1810; read-out: MIC
[7] = tested on: E. coli NIHJ; experiment: antimicrobial activity (MIC), Table I; conditions: Escherichia coli; E. coli NIHJ; read-out: MIC
[8] = tested on: E. coli K-12; experiment: antimicrobial activity (MIC), Table I; conditions: Escherichia coli, K12; E. coli K-12; read-out: MIC
[9] = tested on: E. coli K-12 R-5; experiment: antimicrobial activity (MIC), Table I; conditions: Escherichia coli, K12R5; E. coli K-12 R-5; read-out: MIC
[10] = tested on: E. coli K-12 ML 1410; experiment: antimicrobial activity (MIC), Table I; conditions: Escherichia coli, K12ML1410
[11] = tested on: E. coli K-12 LA 290 R 55; experiment: antimicrobial activity (MIC), Table I; conditions: Escherichia coli
[12] = tested on: Kleb. pneumoniae PCI 602; experiment: antimicrobial activity (MIC), Table I; conditions: Klebsiella pneumoniae, PCI602; Kleb. pneumoniae PCI 602; read-out: MIC
[13] = tested on: Shigella dysenteriae JS 11910; experiment: antimicrobial activity (MIC), Table I; conditions: JS11910
[14] = tested on: Sal. enteritidis 1891; experiment: antimicrobial activity (MIC), Table I; conditions: Salmonella enterica; Sal. enteritidis 1891; read-out: MIC
[15] = tested on: Pro. vulgaris OX-19; experiment: antimicrobial activity (MIC), Table I; conditions: Proteus vulgaris, OX19
[16] = tested on: B. subtilis ATCC 6633; experiment: antimicrobial activity (MIC), Table II; conditions: Bacillus subtilis, ATCC6633
[17] = tested on: B. cereus; experiment: antimicrobial activity (MIC), Table II; conditions: Bacillus cereus
[18] = tested on: Staph. aureus ATCC 6538P; experiment: antimicrobial activity (MIC), Table II; conditions: Staphylococcus aureus, ATCC6538P; Staph. aureus ATCC 6538P; read-out: MIC
[19] = tested on: Staph. aureus KC-11; experiment: antimicrobial activity (MIC), Table II; conditions: Staphylococcus aureus, KC11; Staph. aureus KC-11; read-out: MIC
[20] = tested on: Staph. aureus 226; experiment: antimicrobial activity (MIC), Table II; conditions: Staphylococcus aureus; Staph. aureus 226; read-out: MIC
[21] = tested on: Staph. epidermidis IID 886; experiment: antimicrobial activity (MIC), Table II; conditions: Staphylococcus epidermidis, IID886
[22] = E. coli K-12 ML 1410, read-out: MIC

| SMILES | MIC [1] [µg/mL] | MIC [2] [µg/mL] | MIC [3] [µg/mL] | MIC [4] [µg/mL] | MIC [5] [µg/mL] | MIC [6] [µg/mL] | MIC [7] [µg/mL] | MIC [8] [µg/mL] | MIC [9] [µg/mL] | MIC [10, 22] [µg/mL] | MIC [11] [µg/mL] | MIC [12] [µg/mL] | MIC [13] [µg/mL] | MIC [14] [µg/mL] | MIC [15] [µg/mL] | also measured |
| --- | --- | --- | --- | --- | --- | --- | --- | --- | --- | --- | --- | --- | --- | --- | --- | --- |
| CCC1OC(=O)CC(O)C(C)C(OC2OC(C)CC(N(C)C)C2O)C(CC=O)CC(C)C(=O)C=CC(C)=CC1CN1CCCCCC1 (centres unmarked) [Example 18, 23,4'-dideoxy-23-hexamethyleneiminomycaminosyl tylonolide] | < 0.2 | < 0.2 | 0.78 (≈ 1.18 µM) | < 0.2 | < 0.2 | < 0.2 | 0.39 (≈ 0.588 µM) | 0.78 (≈ 1.18 µM) | 0.78 (≈ 1.18 µM) | 0.78 (≈ 1.18 µM) | 0.78 (≈ 1.18 µM) | 0.39 (≈ 0.588 µM) | < 0.2 | < 0.2 | – | MIC ([15]; Pro. vulgaris OX-19, read-out: MIC): 0.78 µg/mL (≈ 1.18 µM) |
| CCC1OC(=O)CC(O)C(C)C(OC2OC(C)CC(N(C)C)C2O)C(CC=O)CC(C)C(=O)C=CC(C)=CC1CN1CCCCCCC1 (centres unmarked) [Example 19, 23,4'-dideoxy-23-heptamethyleneiminomycaminosyl tylonolide] | 0.2 (≈ 0.295 µM) | < 0.2 | 0.78 (≈ 1.15 µM) | < 0.2 | 0.39 (≈ 0.576 µM) | < 0.2 | 0.39 (≈ 0.576 µM) | 0.78 (≈ 1.15 µM) | 0.78 (≈ 1.15 µM) | 0.78 (≈ 1.15 µM) | 0.39 (≈ 0.576 µM) | 0.2 (≈ 0.295 µM) | < 0.2 | < 0.2 | 0.39 (≈ 0.576 µM) | – |
| CC[C@H]1OC(=O)C[C@@H](O)[C@H](C)[C@@H](O[C@@H]2O[C@H](C)[C@@H](O[C@H]3C[C@@](C)(O)[C@@H](O)[C@H](C)O3)[C@H](N(C)C)[C@H]2O)[C@@H](CC=O)C[C@@H](C)C(=O)/C=C/C(C)=C/[C@@H]1CO[C@@H]1O[C@H](C)[C@@H](O)[C@@H](OC)[C@H]1OC [Tylosin] | 0.78 (≈ 0.851 µM) | – | – | < 0.2 | – | 0.2 (≈ 0.218 µM) | – | > 100 | > 100 | – | > 100 | – | – | – | > 100 | MIC [10]: > 100 µg/mL; MIC [16]: 0.78 µg/mL (≈ 0.851 µM); MIC [17]: 0.78 µg/mL (≈ 0.851 µM); MIC [18]: 1.56 µg/mL (≈ 1.7 µM); MIC [19]: 1.56 µg/mL (≈ 1.7 µM); MIC [20]: 1.56 µg/mL (≈ 1.7 µM); MIC [21]: 1.56 µg/mL (≈ 1.7 µM) |
